Laboratory results published in US6113896A, “Pharmaceutical compositions containing ecotin and homologs thereof” (priority 1994, dated 2000).

Experiments:
[1] = test system: FXa; assay: Ecotin·FXa dissociation rate constant (HLE trap); type: biochemical, human; conditions: calculated from (Ki)·(kon)
Experimental: Determination of FXa dissociation rate constant The dissociation rate constant of the ecotin.cndot.FXa complex was measured using HLE to trap the free ecotin released from the complex. FXa (10 μM) was incubated for 1 h in TNCT buffer in the presence and absence of ecotin (12.5 μM) and diluted 1000-fold into TNCT buffer with and without HLE (500 nM). Aliquots (180 μl ) were removed at various times and initial rates of free FXa were measured at 405 nm with 20 μl of 5 mM Spectrozyme fXa. The product curve (free FXa versus time) was fit to equation 6; the value for koff was determined by nonlinear regression analysis.
To measure the dissociation rate constant of ecotin from FXa, the complex was diluted 1000-fold into buffer containing a 50-fold excess of HLE to trap the free ecotin and prevent reassociation. In the absence of HLE, reassociation of ecotin with FXa was so rapid that free FXa was barely detectible (FIG. 4B). Progress of dissociation was monitored as the increase in hydrolysis rate of Spectrozyme fXa resulting from the increasing free FXa with time. Because HLE prevented reassociation the rate of dissociation of the E·I complex is given by equation (5): [formula] which upon integration gives equation (6): […]
where [E] is the free [FXa] at any time t, [E.cndot.I]0 is the concentration of the complex at time zero, and koff is the first order dissociation rate constant. The time dependent E·I complex dissociation curve fit to equation (6) by nonlinear regression analysis is shown in FIG. 4B; the dissociation rate constant for ecotin tested is shown above in Table I.

[2] = test system: human FXa; assay: Equilibrium inhibition constant with Factor Xa (tight-binding analysis); type: biochemical; conditions: compared with wild type
Experimental: Determination of Equilibrium Inhibition Constants Apparent Ki values (Ki *) for the inhibition of the enzymes tested by ecotin and mutants were measured as follows. All reactions were performed at 25° C. Stock solutions of trypsin were quantitated by active site burst titration with MUGB as previously described (Jameson, G. W. et al., Biochem. J. 131:107-117 [1973]) using a Fluoroskan II plate reader at excitation wavelength of 355 nm and emission wavelength of 460 nm. Data was collected on a Macintosh SE20 using either Delta Soft II Fl v3.31 software (BioMetallics). Active site titrated trypsin was then used to quantitate ecotin active sites using BAPA as the substrate; a stoichiometry of 1:1 was assumed (Chung, C. H. et al., supra). Factor Xa, Factor XIIa, plasma kallikrein, or HLE were then quantitated by active site titration using ecotin as a standard, again assuming 1:1 stoichiometry. In addition, the concentration of HLE was quantitated by methods previously described using a calibrated stock of α1 -proteinase inhibitor to titrate the HLE active sites (Beatty, K. et al., J. Biol. Chem. 255:3931-3934 [1980]); the same HLE active site concentration was determined using both ecotin and α1 -proteinase inhibitor. The substate for FXa was Spectrozyme fXa (0.5 mM); the substrate for FXIIa (0.5 mM) and plasma kallikrein was S2302 (0.5 mM); the substrate for HLE was MeOSuc-Ala-Ala-Pro-Val-pNA (0.4 mM). There was good agreement upon comparison of the protein concentrations determined by amino acid analysis, Bradford analysis (Bradford, M. M. Anal. Biochem. 72:248-254 (1976) or active site titrations for trypsin, ecotin, FXa, FXIIa, plasma kallikrein, and HLE.
Therefore, apparent equilibrium dissociation values (Ki *) were determined using methods derived for tight-binding inhibitors (Morrison, J. F. Biochim. Biophys. Acta 185:269-286 [1969]), (Bieth, J. in Proteinase Inhibitors (Fritz, H., Tschesche, H., Greene, L. J. and Truscheit, E., Ed.) pp 463-469, Springer-Verlag, New York [1974]). Data were fit by nonlinear regression analysis to equation 1 and values for Ki * were determined. [formula] where α is the fractional activity (steady-state inhibited rate divided by the uninhibited rate), [Eo ] is the total enzyme concentration, and [Io ] is the total ecotin concentration. Since the inhibitor and substrate compete for the same site, the true Ki value is related to Ki^* by the expression Ki =Ki */(1+[S]/Km), where Km is the Michaelis constant for the substrate, and [S] is the substrate concentration.
a. […] Following a 1 hour incubation at room temperature to reach equilibration of the enzyme.cndot.inhibitor complex, 20 μl of 5 mM Spectrozyme fXa was added, and the steady-state rate of product formation measured by monitoring the change in absorbance at 405 nm. The Km for Spectrozyme fXa with FXa under these conditions was determined to be 0.23 mM by linear regression analysis of Lineweaver-Burke plots.

[3] = test system: HLE; conditions: relative to α1-proteinase inhibitor with P1 Met, literature; cited from earlier work

Substance | koff (values in parenthesis) [1] [s⁻¹] | inhibition of FXa, in words [2] | decreased inhibition towards HLE [3]
M84A | 0.00066 | – | –
M84E | 0.00057 | significant inhibition | –
α1-Proteinase inhibitor (Pittsburgh): naturally occuring mutant of the serpin α1-proteinase inhibitor which has Arg in the P1 position instead of Met | – | – | 10,000 fold
M84D | – | significant inhibition | –
